Laboratory results: US6288091A, “Antiherpes virus compounds and methods for their preparation and use” (Boehringer Ingelheim Ltd., priority 1999, dated 2001)
Like-named read-outs stand apart in the source and are kept apart here.

What was measured:
HSV-1 helicase-primase = target: T1, HSV-1 helicase-primase (Human herpesvirus 1, UniProt P10189+P10236); experiment: HSV-1 DNA-dependent ATPase assay (inhibition of HSV-1 helicase-primase); assay type: biochemical; conditions: Group 1 Table 1 entries
T1 construct: made in house; host or cells: Sf21 insect cells triply infected with recombinant baculoviruses (UL5, UL8, UL52)
T1 sequence (P10192 whole entry): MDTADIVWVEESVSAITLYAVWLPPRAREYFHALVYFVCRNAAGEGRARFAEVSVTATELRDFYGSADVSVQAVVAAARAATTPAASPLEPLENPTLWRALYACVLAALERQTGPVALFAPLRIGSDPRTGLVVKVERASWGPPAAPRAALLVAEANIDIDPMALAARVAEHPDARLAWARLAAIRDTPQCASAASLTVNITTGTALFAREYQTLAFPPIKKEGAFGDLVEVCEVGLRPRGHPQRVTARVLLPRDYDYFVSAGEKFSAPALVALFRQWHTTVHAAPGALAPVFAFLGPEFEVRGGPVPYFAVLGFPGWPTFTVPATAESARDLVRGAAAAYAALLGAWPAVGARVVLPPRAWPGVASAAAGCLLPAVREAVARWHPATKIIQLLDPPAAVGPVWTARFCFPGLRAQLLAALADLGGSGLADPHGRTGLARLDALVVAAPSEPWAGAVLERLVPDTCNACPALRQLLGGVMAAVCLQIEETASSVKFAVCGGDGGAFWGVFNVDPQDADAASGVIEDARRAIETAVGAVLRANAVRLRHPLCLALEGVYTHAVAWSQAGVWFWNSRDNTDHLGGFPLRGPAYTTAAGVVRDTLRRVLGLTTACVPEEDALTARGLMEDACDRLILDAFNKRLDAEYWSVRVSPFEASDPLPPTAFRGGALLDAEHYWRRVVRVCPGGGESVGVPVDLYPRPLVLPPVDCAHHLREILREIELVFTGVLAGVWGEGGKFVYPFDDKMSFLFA
T1 sequence (P10236 whole entry): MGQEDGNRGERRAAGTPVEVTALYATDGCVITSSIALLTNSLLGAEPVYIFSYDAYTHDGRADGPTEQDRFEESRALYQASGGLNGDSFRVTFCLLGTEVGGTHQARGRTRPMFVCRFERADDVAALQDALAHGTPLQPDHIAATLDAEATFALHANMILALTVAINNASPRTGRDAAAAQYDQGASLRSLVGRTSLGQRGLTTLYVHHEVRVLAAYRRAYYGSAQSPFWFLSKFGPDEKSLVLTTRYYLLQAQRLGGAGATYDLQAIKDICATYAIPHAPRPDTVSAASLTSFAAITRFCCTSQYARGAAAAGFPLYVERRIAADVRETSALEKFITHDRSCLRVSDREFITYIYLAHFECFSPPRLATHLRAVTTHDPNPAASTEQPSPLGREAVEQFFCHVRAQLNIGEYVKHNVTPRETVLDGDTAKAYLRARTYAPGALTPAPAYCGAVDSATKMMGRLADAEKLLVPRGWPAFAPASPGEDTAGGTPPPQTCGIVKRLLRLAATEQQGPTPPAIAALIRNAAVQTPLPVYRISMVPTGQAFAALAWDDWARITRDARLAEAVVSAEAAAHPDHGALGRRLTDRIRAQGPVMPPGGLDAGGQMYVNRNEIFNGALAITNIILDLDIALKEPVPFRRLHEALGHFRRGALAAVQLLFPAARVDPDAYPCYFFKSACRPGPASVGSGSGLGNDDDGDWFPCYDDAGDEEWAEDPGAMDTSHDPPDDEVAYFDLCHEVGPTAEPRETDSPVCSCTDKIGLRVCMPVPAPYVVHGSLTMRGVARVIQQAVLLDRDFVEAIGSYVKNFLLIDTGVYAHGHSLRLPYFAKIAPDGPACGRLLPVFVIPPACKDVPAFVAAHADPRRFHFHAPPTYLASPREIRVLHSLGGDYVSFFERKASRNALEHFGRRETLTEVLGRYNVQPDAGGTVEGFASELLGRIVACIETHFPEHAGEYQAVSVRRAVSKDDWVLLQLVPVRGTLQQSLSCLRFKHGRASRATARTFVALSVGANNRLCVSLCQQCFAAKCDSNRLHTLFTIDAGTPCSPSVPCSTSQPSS
T1 sequence (P10189 whole entry): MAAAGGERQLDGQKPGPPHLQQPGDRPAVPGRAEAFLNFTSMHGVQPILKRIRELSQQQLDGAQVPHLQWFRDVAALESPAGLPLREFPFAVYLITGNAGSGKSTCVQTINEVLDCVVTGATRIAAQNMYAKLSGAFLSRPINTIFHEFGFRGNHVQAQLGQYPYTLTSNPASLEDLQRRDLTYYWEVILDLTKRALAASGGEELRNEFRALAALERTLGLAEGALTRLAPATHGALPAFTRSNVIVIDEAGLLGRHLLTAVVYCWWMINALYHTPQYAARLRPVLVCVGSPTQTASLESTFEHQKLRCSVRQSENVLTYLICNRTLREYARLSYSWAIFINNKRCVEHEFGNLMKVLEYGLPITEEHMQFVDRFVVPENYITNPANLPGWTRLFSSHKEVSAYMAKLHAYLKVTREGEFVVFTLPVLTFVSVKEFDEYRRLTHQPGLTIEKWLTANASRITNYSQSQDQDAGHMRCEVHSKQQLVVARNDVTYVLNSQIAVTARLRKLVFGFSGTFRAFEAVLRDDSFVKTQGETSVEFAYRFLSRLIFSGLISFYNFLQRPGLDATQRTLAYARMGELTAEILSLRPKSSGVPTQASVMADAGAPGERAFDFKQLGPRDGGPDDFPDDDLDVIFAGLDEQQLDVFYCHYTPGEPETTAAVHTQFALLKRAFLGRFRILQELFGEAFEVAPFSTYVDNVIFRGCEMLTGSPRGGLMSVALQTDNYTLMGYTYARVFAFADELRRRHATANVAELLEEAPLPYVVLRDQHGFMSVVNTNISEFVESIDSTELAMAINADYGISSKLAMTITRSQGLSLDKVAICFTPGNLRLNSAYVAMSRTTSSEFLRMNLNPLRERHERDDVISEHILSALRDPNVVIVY
Source text: A) HSV-1 DNA-Dependent ATP Assay (an in Vitro Assay Based on the Inhibition of HSV-1 Helicase-primase).
HSV-1 helicase-primase holoenzyme was produced in triply infected Sf21 cells using recombinant baculoviruses expressing the UL5, UL8 and UL52 helicase-primase subunits, as described by S. Dracheva et al., J. Biol. Chem. 1995, 270, 14148. The crude enzyme was purified by ammonium sulfate precipitation, Source 15Q® chromatography and Sephacryl® S-300 HR gel filtration (both purification systems can be obtained from Pharmacia Biotech Inc., Montreal, Quebec, Canada), see S. Dracheva et al., supra.
The DNA-dependent ATPase assay, described by J. J. Crute et al., Nucleic Acids Res. 1988, 16, 6585, was modified and used to evaluate the capability of the compounds of Group 1-formula 1 to inhibit HSV-1 helicase-primase activity. The reaction mixtures (80 μL each) contained 40 mM 4-(2-hydroxyethyl)-1-piperazineethanesulfonic acid (HEPES, pH 7.5), 10% (v/v) glycerol, 5.5 mM MgCl2, 1 mM DL-dithiothreitol (DTT), 50 μg/mL acetylated bovine serum albumin, 3.3% (v/v) DMSO, 4 mM ATP, 25 μM single-stranded M13 DNA hybridized to double-tailed 68-mer oligonucleotide and 3 μg/mL HSV-1 helicase-primase. After incubation for 20 min at 34°, formation of inorganic phosphate from hydrolysis of ATP was monitored spectrophotometrically at 650 nm using acidic ammonium molybdate/malachite green reagent, P. A. Lanzetta et al., Anal. Biochem. 1979, 100, 95. DNA-dependent ATPase activity was calculated from the net absorbance change in the presence and absence of inhibition.

HSV-1 strain F or KOS = experiment: Inhibition of herpes simplex virus (HSV-1) replication in cell culture (BHK-21 cells, glycoprotein C ELISA); assay type: cell-based; conditions: Human alphaherpesvirus 1, BHK-21, Group 1 Table 1 entries
Procedure: B) Inhibition of Herpes Simplex Virus (HSV-1) Replication in Cell Culture
BHK-21 cells clone 13 (ATCC CCL10) were incubated for two days in 850 cm^2 roller bottles (2×10^7 cells/bottle) with A-MEM medium (Gibco Canada Inc., Burlington, Ontario, Canada) supplemented with 8% (v/v) fetal bovine serum (FBS, Gibco Canada, Inc.). The cells were trypsinized and then 3,000 cells in 100 μL of fresh medium were transferred into each well of a 96-well microtiter plate. The cells were incubated at […] for a period of 3 days to reach a density of 50,000 cells per well. The cells were washed twice with 100 μL of α-MEM supplemented with 2% heat inactivated FBS and incubated for 1-2 hours in 100 μL of the same medium.
Thereafter, the cells were infected with HSV-1 strain F or KOS (multiplicity of infection =0.05 PFU/cell) in 50 μL of α-MEM supplemented with 2% heat inactivated FBS. Following one hour of virus absorption at 37°, the medium was removed and the cells were washed with α-MEM supplemented with 2% heat inactivated FBS (2×100 μL). The cells were incubated with or without 100 μL of the appropriate concentration of test reagent in α-MEM medium supplemented with 2% heat inactivated FBS. After 24 hours of incubation at 37°, the extent of viral replication was determined by an ELISA assay; for instance, the following assay that detects the late glycoprotein C of HSV-1.
Cells were fixed in the microtiter plate with 100 μL of 0.063% glutaraldehyde in phosphate buffered saline for 30 min at room temperature. The microtiter plate was then washed once with casein blocking solution and blocked with 200 μL of the same solution for one hour at room temperature. Thereafter, 100 μL of mAb C11 recognizing the glycoprotein C of HSV-1 (see E. Trybala et al., Journal of General Virology, 1994, 75, 743) was added to each well for two hours at room temperature. The plate was washed three times with phosphate buffered saline containing 0.05% polyoxyethylene (20) sorbitan monooleate. The cells were incubated with 100 μL of sheep anti-mouse IgG horseradish peroxidase for one hour at room temperature in the dark.
The plate was washed three times with 200 μL of the above-noted phosphate buffer saline preparation, and then once with 0.1 M sodium citrate (pH 4.5). Thereafter, 100 μL of orthophenylenediamine dihydrochloride (OPD, Gibco, Canada Inc.) was added to each well. The plate was agitated on a microplate shaker for 30 min in the dark. Color development was monitored at 450 nm using a microplate spectrophotometer.
SAS was used to calculate % inhibition of viral replication and to generate EC50 values.

HCMV (strain AD169) = experiment: Inhibition of HCMV replication, plaque reduction assay (PRA, Hs-68 cells); assay type: cell-based, Human Cytomegalovirus (HCMV); conditions: read-out: PRA CMV EC50
Procedure: C) Inhibition of Human Cytomegalovirus (HCMV) Replication
The effect of compounds on the replication of HCMV has been measured by using an ELISA-based assay (ELISA) and a plaque reduction assay (PRA).
Hs-68 cells (ATCC # CRL 1635) were seeded in 12-well plates at 83,000 cells/well in 1 mL of DMEM medium (Gibco Canada Inc.) supplemented with 10% fetal bovine serum (FBS, Gibco Canada Inc.). The plates were incubated for 3 days at 37° to allow the cells to reach 80-90% confluency prior to the assay.
The medium was removed from the cells by aspiration. The cells were then infected with approximately 50 PFU of HCMV (strain AD169, ATCC VR-538) in DMEM medium supplemented with 5% inactivated FBS (assay medium). The virus was allowed to adsorb to cells for 2 h at 37°. Following viral adsorption, the medium was removed from the wells by aspiration. The cells were then incubated with or without 1 mL of appropriate concentrations of test reagent in assay medium. After 4 days of incubation at 37°, the medium was exchanged with fresh medium containing test compound and 4 days later the cells were fixed with 1% aqueous formaldehyde and stained with a 2% crystal violet solution in 20% ethanol in water. Microscopic plaques were counted using a stereomicroscope. Drug effects were calculated as a percent reduction in the number of plaques in the presence of each drug concentration compared to the number observed in the absence of drug. Ganciclovir was used as a positive control in all experiments.
The EC50 values obtained according to this assay for certain thiazolyl derivatives of this invention are listed in the following tables under the heading PRA CMV.

[1] = Human betaherpesvirus 5, AD169, Hs68, Group 2 Table 1 entries
[2] = Human betaherpesvirus 5, AD169, Hs68, Group 1 Table 2 entries
[3] = Human betaherpesvirus 5, AD169, Hs68, Group 1 Table 1 entries

| IC50 (HSV-1 helicase-primase) [µM] | EC50 (HSV-1 strain F or KOS) [µM] | Structure (SMILES) | further results |
| --- | --- | --- | --- |
| 1.8 | 0.44 | Nc1nc(-c2ccc(NC(=O)CN(CCc3ccccn3)C(=O)c3ccncc3)cc2)cs1 [Example 158] | – |
| 1.6 | 0.36 | Cc1nc(C(=O)N(CC(=O)Nc2ccc(-c3csc(N)n3)cc2)Cc2ccccc2)cs1 [Example 172] | – |
| 0.35 | 0.022 | Nc1nc(-c2ccc(NC(=O)CN(Cc3cccc(F)c3)C(=O)c3ccncc3)cc2)cs1 [Example 147] | – |
| 2.4 | 0.68 | Nc1nc(-c2ccc(NC(=O)CN(CCc3nccs3)C(=O)c3ccncc3)cc2)cs1 [Example 163] | – |
| 2.9 | 0.45 | Cc1cc(C(=O)N(CC(=O)Nc2ccc(-c3csc(N)n3)cc2)Cc2ccccc2)cc(C)n1 [Example 168] | – |
| 4.6 | 1.1 | Cc1nc(CCN(CC(=O)Nc2ccc(-c3csc(N)n3)cc2)C(=O)c2ccncc2)cs1 [Example 165] | – |
| 0.39 | 0.019 | Nc1nc(-c2ccc(NC(=O)CN(Cc3ccccc3Cl)C(=O)c3ccncc3)cc2)cs1 [Example 145] | – |
| 2.5 | 0.069 | Cc1nc(CN(CC(=O)Nc2ccc(-c3csc(N)n3)cc2)C(=O)c2ccncc2)cs1 [Example 162] | – |

Second part, the compound before the results:

| Structure (SMILES) | IC50 (HSV-1 helicase-primase) [µM] | EC50 (HSV-1 strain F or KOS) [µM] | further results |
| --- | --- | --- | --- |
| Nc1nc(-c2ccc(NC(=O)Nc3nccs3)cc2)cs1 [Example 18] | – | – | EC50 (HCMV (strain AD169); [1]): > 56 µM |
| Cc1cc(C)nc(SCC(=O)N(CC(=O)Nc2ccc(-c3csc(NC(=O)OC(C)(C)C)n3)cc2)Cc2ccccc2)n1 [Example 21] | – | – | EC50 (HCMV (strain AD169); Human betaherpesvirus 5, AD169, Hs68, Group 1 Table 3 entries): 1.2 µM |
| Nc1nc(-c2ccc(NC(=O)CN(Cc3cccc(F)c3)Cc3cccc(F)c3)cc2)cs1 [Example 18] | 0.4 | 0.1 | – |
| Cc1ccc(CNCC(=O)Nc2ccc(-c3csc(N)n3)cc2)cc1 [Example 6] | 19 | 18 | – |
| Nc1nc(-c2ccc(NC(=O)CCN(Cc3ccccc3)Cc3ccccc3O)cc2)cs1 [Example 30] | – | – | EC50 (HCMV (strain AD169); [2]): 13 µM |
| Nc1nc(-c2ccc(NC(=O)CCN(CCN3CCCC3)Cc3ccccc3)cc2)cs1 [Example 27] | – | – | EC50 (HCMV (strain AD169); [2]): 15 µM |
| Cc1ccccc1CN(CC(=O)Nc1ccc(-c2csc(N)n2)cc1)C(=O)Cc1cccs1 [Example 131] | – | – | EC50 (HCMV (strain AD169); [3]): 16 µM |
| CCCCN(CCCC)C(=O)Nc1ccc(-c2csc(Nc3ccccn3)n2)cc1 [Example 35] | – | – | EC50 (HCMV (strain AD169); [1]): 2.2 µM |
| Nc1nc(-c2ccc(NC(=O)CN(Cc3ccccc3)C(=O)Cc3cccs3)cc2)cs1 [Example 116] | – | – | EC50 (HCMV (strain AD169); [3]): 19 µM |
| Nc1nc(-c2ccc(NC(=O)CCN(Cc3ccccc3)Cc3ccccn3)cc2)cs1 [Example 26] | – | – | EC50 (HCMV (strain AD169); [2]): 14 µM |
| CCCCN(CCO)C(=O)Nc1ccc(-c2csc(NC(=O)OC(C)(C)C)n2)cc1 [Example 32] | – | – | EC50 (HCMV (strain AD169); [1]): 2 µM |
| Nc1nc(-c2ccc(NC(=O)CN(Cc3ccc(F)cc3)C(=O)Cc3ccccn3)cc2)cs1 [Example 124] | – | – | EC50 (HCMV (strain AD169); [3]): 28 µM |
| CN(C)c1cccc2c(S(=O)(=O)N(CC(=O)Nc3ccc(-c4csc(N)n4)cc3)Cc3ccncc3)cccc12 [Example 99] | 1.6 | 0.67 | – |
